Data published in paper PMC6437697 (Journal of Medicinal Chemistry, 2019).

Legend:
Assay in all cases: KINOMEscan
Type in all cases: binding
Settings in all cases: read-out: % control activity remaining
DYRK2 = biological target: T1, DYRK2 (Homo sapiens, UniProt Q92630)
T1 construct: purchased Eurofins DiscoverX KINOMEscan
T1 sequence (Q92630 1-601): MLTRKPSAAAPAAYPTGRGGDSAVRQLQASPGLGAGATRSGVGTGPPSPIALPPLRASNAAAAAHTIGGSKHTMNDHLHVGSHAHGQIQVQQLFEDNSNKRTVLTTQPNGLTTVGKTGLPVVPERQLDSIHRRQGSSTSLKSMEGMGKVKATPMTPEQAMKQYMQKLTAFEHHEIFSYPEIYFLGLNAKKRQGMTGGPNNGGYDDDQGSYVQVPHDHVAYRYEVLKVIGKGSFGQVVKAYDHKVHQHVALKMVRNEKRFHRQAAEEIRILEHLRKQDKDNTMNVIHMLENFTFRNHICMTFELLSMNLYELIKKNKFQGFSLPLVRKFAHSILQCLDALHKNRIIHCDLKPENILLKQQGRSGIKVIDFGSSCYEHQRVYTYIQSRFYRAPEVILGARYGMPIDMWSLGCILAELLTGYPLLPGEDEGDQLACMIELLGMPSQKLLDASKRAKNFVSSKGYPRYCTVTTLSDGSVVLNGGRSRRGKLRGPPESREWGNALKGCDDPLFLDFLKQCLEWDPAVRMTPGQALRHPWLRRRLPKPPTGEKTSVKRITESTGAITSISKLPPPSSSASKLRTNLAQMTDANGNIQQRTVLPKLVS

CAMK2G = biological target: T2, CAMK2G (Homo sapiens, UniProt Q13555)
T2 construct: purchased Eurofins DiscoverX KINOMEscan
T2 sequence (Q13555 whole entry): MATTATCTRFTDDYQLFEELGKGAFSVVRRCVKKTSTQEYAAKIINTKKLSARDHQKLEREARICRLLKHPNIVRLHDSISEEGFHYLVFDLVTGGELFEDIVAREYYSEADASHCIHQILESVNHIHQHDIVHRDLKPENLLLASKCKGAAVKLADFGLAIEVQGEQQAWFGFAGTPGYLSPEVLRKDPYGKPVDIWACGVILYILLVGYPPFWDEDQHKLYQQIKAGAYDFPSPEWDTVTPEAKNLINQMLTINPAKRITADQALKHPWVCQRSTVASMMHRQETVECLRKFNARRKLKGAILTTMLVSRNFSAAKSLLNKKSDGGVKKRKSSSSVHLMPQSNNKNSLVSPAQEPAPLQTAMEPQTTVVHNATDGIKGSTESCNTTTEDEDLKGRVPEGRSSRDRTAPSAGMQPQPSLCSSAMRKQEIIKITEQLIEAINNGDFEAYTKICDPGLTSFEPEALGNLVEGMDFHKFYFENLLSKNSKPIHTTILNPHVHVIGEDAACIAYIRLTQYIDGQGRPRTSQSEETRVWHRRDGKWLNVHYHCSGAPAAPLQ

IRAK3 = biological target: T3, IRAK3 (Homo sapiens, UniProt Q9Y616)
T3 construct: purchased Eurofins DiscoverX KINOMEscan
T3 sequence (Q9Y616 1-596): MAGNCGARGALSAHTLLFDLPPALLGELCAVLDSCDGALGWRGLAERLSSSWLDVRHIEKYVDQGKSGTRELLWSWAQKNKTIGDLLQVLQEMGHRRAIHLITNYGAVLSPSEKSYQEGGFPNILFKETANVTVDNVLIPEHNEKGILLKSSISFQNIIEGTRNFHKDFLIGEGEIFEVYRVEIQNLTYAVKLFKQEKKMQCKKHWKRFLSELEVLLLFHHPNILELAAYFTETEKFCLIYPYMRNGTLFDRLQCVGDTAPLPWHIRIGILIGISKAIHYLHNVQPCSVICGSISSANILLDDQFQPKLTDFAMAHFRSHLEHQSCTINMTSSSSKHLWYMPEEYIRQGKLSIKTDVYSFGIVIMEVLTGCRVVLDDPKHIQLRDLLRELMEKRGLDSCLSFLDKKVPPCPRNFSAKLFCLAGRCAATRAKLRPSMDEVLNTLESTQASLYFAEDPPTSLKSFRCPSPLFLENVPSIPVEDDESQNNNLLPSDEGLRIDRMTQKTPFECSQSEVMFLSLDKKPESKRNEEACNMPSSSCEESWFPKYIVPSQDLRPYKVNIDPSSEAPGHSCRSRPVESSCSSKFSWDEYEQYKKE

DCAMKL2 = biological target: T4, DCAMKL2 (Homo sapiens, UniProt Q8N568)
T4 construct: purchased Eurofins DiscoverX KINOMEscan
T4 sequence (Q8N568 1-766): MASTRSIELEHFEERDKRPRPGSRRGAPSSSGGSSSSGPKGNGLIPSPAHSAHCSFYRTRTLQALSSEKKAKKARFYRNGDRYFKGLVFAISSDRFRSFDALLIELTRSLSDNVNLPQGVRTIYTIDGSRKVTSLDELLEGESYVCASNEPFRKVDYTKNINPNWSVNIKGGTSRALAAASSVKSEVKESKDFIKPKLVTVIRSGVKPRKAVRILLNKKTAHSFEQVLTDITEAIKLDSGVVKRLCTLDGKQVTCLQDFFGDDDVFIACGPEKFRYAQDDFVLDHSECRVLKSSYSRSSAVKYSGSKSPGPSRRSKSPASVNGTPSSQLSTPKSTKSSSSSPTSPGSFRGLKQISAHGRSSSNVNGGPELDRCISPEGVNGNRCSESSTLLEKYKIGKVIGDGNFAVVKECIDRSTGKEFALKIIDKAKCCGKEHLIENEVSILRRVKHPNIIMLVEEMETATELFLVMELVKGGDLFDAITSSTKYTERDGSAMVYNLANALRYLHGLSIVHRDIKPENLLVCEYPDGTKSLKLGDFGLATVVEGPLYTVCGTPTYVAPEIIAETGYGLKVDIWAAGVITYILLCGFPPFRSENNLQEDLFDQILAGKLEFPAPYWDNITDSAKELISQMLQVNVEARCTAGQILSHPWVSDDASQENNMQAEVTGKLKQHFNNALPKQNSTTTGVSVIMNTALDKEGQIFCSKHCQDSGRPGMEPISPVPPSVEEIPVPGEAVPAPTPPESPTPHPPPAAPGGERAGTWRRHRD

ALK(L1196M) = biological target: T5, ALK(L1196M) (Homo sapiens, UniProt Q9UM73, L1196M)
T5 construct: purchased Eurofins DiscoverX KINOMEscan
T5 sequence (Q9UM73 19-1620 L1196M): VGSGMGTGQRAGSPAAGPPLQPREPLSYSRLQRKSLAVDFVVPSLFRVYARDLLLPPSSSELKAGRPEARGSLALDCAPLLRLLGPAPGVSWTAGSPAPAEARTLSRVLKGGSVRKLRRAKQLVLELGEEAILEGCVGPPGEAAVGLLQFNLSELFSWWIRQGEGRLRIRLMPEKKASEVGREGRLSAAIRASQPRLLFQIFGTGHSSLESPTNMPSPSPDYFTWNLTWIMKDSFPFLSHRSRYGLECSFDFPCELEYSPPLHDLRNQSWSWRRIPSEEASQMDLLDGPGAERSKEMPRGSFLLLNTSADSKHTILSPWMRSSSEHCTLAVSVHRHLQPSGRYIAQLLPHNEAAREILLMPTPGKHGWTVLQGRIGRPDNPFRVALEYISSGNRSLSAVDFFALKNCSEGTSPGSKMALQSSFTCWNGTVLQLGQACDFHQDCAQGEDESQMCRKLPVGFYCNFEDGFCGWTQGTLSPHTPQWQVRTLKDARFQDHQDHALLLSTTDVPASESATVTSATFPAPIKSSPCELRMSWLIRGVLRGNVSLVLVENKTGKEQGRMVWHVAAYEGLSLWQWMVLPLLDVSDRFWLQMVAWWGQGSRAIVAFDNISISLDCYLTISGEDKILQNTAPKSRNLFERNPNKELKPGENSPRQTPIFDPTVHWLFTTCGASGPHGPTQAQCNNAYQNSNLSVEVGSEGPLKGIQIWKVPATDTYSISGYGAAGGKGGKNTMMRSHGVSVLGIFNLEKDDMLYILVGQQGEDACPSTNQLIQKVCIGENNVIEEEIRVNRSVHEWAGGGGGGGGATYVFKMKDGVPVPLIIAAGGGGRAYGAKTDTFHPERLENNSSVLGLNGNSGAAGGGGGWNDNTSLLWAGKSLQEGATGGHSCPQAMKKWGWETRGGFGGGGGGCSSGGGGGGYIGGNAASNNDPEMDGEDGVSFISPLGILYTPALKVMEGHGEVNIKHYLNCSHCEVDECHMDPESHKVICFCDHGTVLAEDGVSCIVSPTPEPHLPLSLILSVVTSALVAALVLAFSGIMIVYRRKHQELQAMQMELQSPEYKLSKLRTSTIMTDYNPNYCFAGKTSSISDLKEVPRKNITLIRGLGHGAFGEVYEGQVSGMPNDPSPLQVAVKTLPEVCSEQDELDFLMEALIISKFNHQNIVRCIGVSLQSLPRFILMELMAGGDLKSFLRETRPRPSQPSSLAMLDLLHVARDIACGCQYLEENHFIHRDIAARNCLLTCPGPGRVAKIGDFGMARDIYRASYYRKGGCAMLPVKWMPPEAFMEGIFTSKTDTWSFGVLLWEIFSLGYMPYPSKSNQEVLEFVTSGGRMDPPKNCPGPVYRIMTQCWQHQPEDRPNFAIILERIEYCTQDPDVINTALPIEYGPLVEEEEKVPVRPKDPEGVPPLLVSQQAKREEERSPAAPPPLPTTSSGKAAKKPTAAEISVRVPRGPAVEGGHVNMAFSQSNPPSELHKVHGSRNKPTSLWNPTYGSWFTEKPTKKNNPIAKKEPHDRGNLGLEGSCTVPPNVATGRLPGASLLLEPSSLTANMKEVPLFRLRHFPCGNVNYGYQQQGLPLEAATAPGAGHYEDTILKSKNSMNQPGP

| SMILES | remaining binding at 1 µM (DYRK2) [%] | remaining binding at 1 µM (CAMK2G) [%] | remaining binding at 1 µM (IRAK3) [%] | remaining binding at 1 µM (DCAMKL2) [%] | remaining binding at 1 µM (ALK(L1196M)) [%] |
| --- | --- | --- | --- | --- | --- |
| Clc1cc(NCC2CC2)c2ncc(-c3ccc4[nH]ncc4c3)n2n1 [compound 2, 6-Chloro-N-(cyclopropylmethyl)-3-(1H-indazol-5-yl)imidazo[1,2-b]pyridazin-8-amine] | 28 | 100 | 100 | 95 | 77 |
| O=C(CN1CCOCC1)N[C@H]1CC[C@H](Nc2cc(Cl)nn3c(-c4ccc5[nH]ncc5c4)cnc23)CC1 [compound 26] | 8 | 52 | 49 | 92 | 90 |
| CN1CCC(CNc2cc(Cl)nn3c(-c4cc5nc(Nc6ccccc6)[nH]c5cc4F)cnc23)CC1 [compound 31, 6-Chloro-3-(6-fluoro-2-(phenylamino)-1H-benzo[d]imidazol-5-yl)-N-((1-methylpiperidin-4-yl)methyl)imidazo[1,2-b]pyridazin-8-amine] | 99 | 100 | 95 | 96 | 94 |
